Assay results from PubChem BioAssay AID2060894 (Molecular Pharmacology Branch, DTP, NCI, 2025).
Where “and” joins values, the source holds several entries; their conditions need not be identical. Identical values can stand only once.

Tested on: K12877-001-R-J1-PDC complex spheroid viability
Assay: Anticancer human tumor K12877-001-R-J1-PDC patient-derived lung adenocarcinoma cell line growth inhibition [RAS]
Settings: for viability, T/C: stronger effect = lower value
How it was run: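 Tumour cells grown as complex spheroids with HUVEC endothelial cells and mesenchymal stem cells, treated with RAS pathway inhibitor combinations. Each agent spans half-log steps from near clinical Cmax, or 10 microM where Cmax is unknown.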

[1] = curve of first compound, second compound 0.000949 µM
[2] = curve of first compound, second compound 0.003 µM
[3] = curve of first compound, second compound 0.00949 µM
[4] = curve of first compound, second compound 0.03 µM
[5] = curve of first compound, second compound 0.0949 µM
[6] = curve of first compound, second compound 0.3 µM
[7] = second compound 0.000949 µM, first compound 0.0316 µM
[8] = second compound 0.000949 µM, first compound 0.1 µM
[9] = second compound 0.000949 µM, first compound 0.316 µM
[10] = second compound 0.000949 µM, first compound 1 µM
[11] = second compound 0.003 µM, first compound 0.0316 µM
[12] = second compound 0.003 µM, first compound 0.1 µM
[13] = second compound 0.003 µM, first compound 0.316 µM
[14] = second compound 0.003 µM, first compound 1 µM
[15] = second compound 0.00949 µM, first compound 0.0316 µM
[16] = second compound 0.00949 µM, first compound 0.1 µM
[17] = second compound 0.00949 µM, first compound 0.316 µM
[18] = second compound 0.00949 µM, first compound 1 µM
[19] = second compound 0.03 µM, first compound 0.0316 µM
[20] = second compound 0.03 µM, first compound 0.1 µM
[21] = second compound 0.03 µM, first compound 0.316 µM
[22] = second compound 0.03 µM, first compound 1 µM
[23] = second compound 0.0949 µM, first compound 0.0316 µM
[24] = second compound 0.0949 µM, first compound 0.1 µM
[25] = second compound 0.0949 µM, first compound 0.316 µM
[26] = second compound 0.0949 µM, first compound 1 µM
[27] = second compound 0.3 µM, first compound 0.0316 µM
[28] = second compound 0.3 µM, first compound 0.1 µM
[29] = second compound 0.3 µM, first compound 0.316 µM
[30] = second compound 0.3 µM, first compound 1 µM
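Further: spheroids exposed to agents for one week before readout.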
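Wherever viability, T/C is given: tumour cells co-cultured with HUVEC and mesenchymal stem cells in spheroids.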

SMILES: O=C(c1ccc(F)c(F)c1Nc1ccc(I)cc1F)N1CC(O)([C@@H]2CCCCN2)C1 + CCn1c(-c2cccnc2C(C)OC)c2c3cc(ccc31)N1CCOC(CC(NC(=O)C(C(C)C)N(C)C(=O)C3(F)CCN(C(=O)C#CC(C)(C)N(C)C)CC3)C(=O)N3CCCC(N3)C(=O)OCC(C)(C)C2)C1
- IC50 [1]: 300 nM
- IC50 [2]: 239 nM
- IC50 [3]: 144 nM
- IC50 [4]: 227 nM
- IC50 [5]: 129 nM
- IC50 [6]: 58.7 nM
- viability, T/C (second compound 0.000949 µM, first compound 0.00316 µM): 81.2%
- viability, T/C (second compound 0.000949 µM, first compound 0.01 µM): 77.5%
- viability, T/C [7]: 80.8%
- viability, T/C [8]: 66.5%
- viability, T/C [9]: 49.9%
- viability, T/C [10]: 35.4%
- viability, T/C (second compound 0.003 µM, first compound 0.00316 µM): 72.6%
- viability, T/C (second compound 0.003 µM, first compound 0.01 µM): 69.8%
- viability, T/C [11]: 67.5%
- viability, T/C [12]: 66.8%
- viability, T/C [13]: 44.6%
- viability, T/C [14]: 28.6%
- viability, T/C (second compound 0.00949 µM, first compound 0.00316 µM): 71.1%
- viability, T/C (second compound 0.00949 µM, first compound 0.01 µM): 62.6%
- viability, T/C [15]: 70.7%
- viability, T/C [16]: 55.4%
- viability, T/C [17]: 37.7%
- viability, T/C [18]: 32.7%
- viability, T/C (second compound 0.03 µM, first compound 0.00316 µM): 66.1%
- viability, T/C (second compound 0.03 µM, first compound 0.01 µM): 72.8%
- viability, T/C [19]: 73.1%
- viability, T/C [20]: 59%
- viability, T/C [21]: 46.3%
- viability, T/C [22]: 28.9%
- viability, T/C (second compound 0.0949 µM, first compound 0.00316 µM): 76.7%
- viability, T/C (second compound 0.0949 µM, first compound 0.01 µM): 64.5%
- viability, T/C [23]: 69.5%
- viability, T/C [24]: 45.9%
- viability, T/C [25]: 44.3%
- viability, T/C [26]: 33.9%
- viability, T/C (second compound 0.3 µM, first compound 0.00316 µM): 70%
- viability, T/C (second compound 0.3 µM, first compound 0.01 µM): 65.6%
- viability, T/C [27]: 52.1%
- viability, T/C [28]: 45.6%
- viability, T/C [29]: 40.1%
- viability, T/C [30]: 31%

SMILES: CC1(O)CCCC1n1c(=O)c(C(F)F)cc2cnc(NC3CCN(S(C)(=O)=O)CC3)nc21 (stereo not drawn) + CCn1c(-c2cccnc2C(C)OC)c2c3cc(ccc31)N1CCOC(CC(NC(=O)C(C(C)C)N(C)C(=O)C3(F)CCN(C(=O)C#CC(C)(C)N(C)C)CC3)C(=O)N3CCCC(N3)C(=O)OCC(C)(C)C2)C1
- IC50 [1]: 202 nM
- IC50 [2]: 126 nM
- IC50 [3]: 134 nM
- IC50 [4]: 107 nM
- IC50 [5]: 80.8 nM
- IC50 [6]: 97.9 nM
- viability, T/C [7]: 89.8%
- viability, T/C [8]: 61.3%
- viability, T/C [9]: 31.9%
- viability, T/C [10]: 38.7%
- viability, T/C (second compound 0.000949 µM, first compound 3.16 µM): 23.8%
- viability, T/C (second compound 0.000949 µM, first compound 10 µM): 2.35%
- viability, T/C [11]: 76%
- viability, T/C [12]: 46.7%
- viability, T/C [13]: 31.2%
- viability, T/C [14]: 34.5%
- viability, T/C (second compound 0.003 µM, first compound 3.16 µM): 21.3%
- viability, T/C (second compound 0.003 µM, first compound 10 µM): 2.96%
- viability, T/C [15]: 71.9%
- viability, T/C [16]: 43.5%
- viability, T/C [17]: 33.3%
- viability, T/C [18]: 36.8%
- viability, T/C (second compound 0.00949 µM, first compound 3.16 µM): 33.7%
- viability, T/C (second compound 0.00949 µM, first compound 10 µM): 2.22%
- viability, T/C [19]: 66.2%
- viability, T/C [20]: 45.8%
- viability, T/C [21]: 32.1%
- viability, T/C [22]: 34.5%
- viability, T/C (second compound 0.03 µM, first compound 3.16 µM): 27.8%
- viability, T/C (second compound 0.03 µM, first compound 10 µM): 2.85%
- viability, T/C [23]: 55.7%
- viability, T/C [24]: 56.5%
- viability, T/C [25]: 27.5%
- viability, T/C [26]: 27.9%
- viability, T/C (second compound 0.0949 µM, first compound 3.16 µM): 33.9%
- viability, T/C (second compound 0.0949 µM, first compound 10 µM): 2.46%
- viability, T/C [27]: 68.5%
- viability, T/C [28]: 51.2%
- viability, T/C [29]: 27.1%
- viability, T/C [30]: 25.7%
- viability, T/C (second compound 0.3 µM, first compound 3.16 µM): 20.3%
- viability, T/C (second compound 0.3 µM, first compound 10 µM): 2.35%

SMILES: NC1c2ccccc2OC12CCN(c1cnc3c(N4CCCc5ncccc54)n[nH]c3n1)CC2 (stereo not drawn)
- viability, T/C (compound 0.0316 µM): 100% [middle of 4 runs]
- viability, T/C (compound 0.1 µM): 97.9% [middle of 4 runs]
- viability, T/C (compound 10 µM): 51.5% [middle of 4 runs]
- IC50 (curve of compound): > 10000 nM and 3820 nM
